# Source: the supplement of paper PMC4862054
# Test system: CAL-148
# Test: normalised response (% of control), CellTox Green; higher = less cell death (100 = DMSO, 0 = benzethonium chloride kill control)
# Details: incubation time: 72 h
# Outline: (§1)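 Breast cancer cell lines in 20 µl suspension were added to 384-well plates containing compound at 5 concentrations, spaced in 10-fold steps across a 10,000-fold range chosen for each compound, and incubated for 72 h. CellTox Green fluorescence was read at 485/520 nm, followed by CellTiter-Glo luminescence after 10 min at room temperature. Signals on each plate were normalised so that 0.1 % DMSO equals 100 and a positive kill control equals 0. Every value in the table is the normalised signal at one concentration of the series.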
row,SMILES,normalised response
1,CC[C@@]1(O)C(=O)OCc2c1cc1n(c2=O)Cc2cc3c(CN(C)C)c(O)ccc3nc2-1 [Topotecan] (100 nM),37.6%

# Test system: CAL-51
# Test: as above
# Details: incubation time: 72 h
# Outline: as §1
row,SMILES,normalised response
1,COc1ccc(-c2cc3c(C)nc(N)nc3n([C@H]3CC[C@H](OCCO)CC3)c2=O)cn1 (1000 nM),43.9%
2,COc1ccc(-c2cc3c(C)nc(N)nc3n([C@H]3CC[C@H](OCCO)CC3)c2=O)cn1 (10000 nM),17.6%
3,O=C(Nc1c[nH]nc1-c1nc2ccc(CN3CCOCC3)cc2[nH]1)NC1CC1 [AT9283] (1000 nM),56%
4,COc1cc(CCc2cc(NC(=O)c3ccc(N4CC(C)NC(C)C4)cc3)n[nH]2)cc(OC)c1 (stereo unspecified) [AZD4547] (100 nM),95.6%
5,CO[C@@H](C(=O)N1Cc2[nH]nc(NC(=O)c3ccc(N4CCN(C)CC4)cc3)c2C1)c1ccccc1 [Danusertib] (1000 nM),57.8%
6,Cc1nc(Nc2ncc(C(=O)Nc3c(C)cccc3Cl)s2)cc(N2CCN(CCO)CC2)n1 [Dasatinib] (100 nM),68.4%
7,Cc1nc(Nc2ncc(C(=O)Nc3c(C)cccc3Cl)s2)cc(N2CCN(CCO)CC2)n1 [Dasatinib] (1000 nM),75.6%
8,Cc1c(CN2CCN(C(=O)[C@H](C)O)CC2)sc2c(N3CCOCC3)nc(-c3cnc(N)nc3)nc12 [GDC-0980] (1000 nM),90.8%
9,Cc1c(CN2CCN(C(=O)[C@H](C)O)CC2)sc2c(N3CCOCC3)nc(-c3cnc(N)nc3)nc12 [GDC-0980] (10000 nM),18%
10,C[C@]12O[C@H](C[C@]1(O)CO)n1c3ccccc3c3c4c(c5c6ccccc6n2c5c31)CNC4=O [Lestaurtinib] (100 nM),56.4%
11,C[C@]12O[C@H](C[C@]1(O)CO)n1c3ccccc3c3c4c(c5c6ccccc6n2c5c31)CNC4=O [Lestaurtinib] (1000 nM),111%
12,O=C1c2c(O)ccc(O)c2C(=O)c2c(NCCNCCO)ccc(NCCNCCO)c21 [Mitoxantrone] (100 nM),92.8%
13,O=C1c2c(O)ccc(O)c2C(=O)c2c(NCCNCCO)ccc(NCCNCCO)c21 [Mitoxantrone] (1000 nM),60%
14,Nc1ccccc1NC(=O)c1ccc(CNc2nccc(-c3cccnc3)n2)cc1 [Mocetinostat] (10000 nM),7.12%
15,COc1nc(N)nc2c1ncn2[C@@H]1O[C@H](CO)[C@@H](O)[C@@H]1O [Nelarabine] (10000 nM),111%
16,Cc1ccc(Nc2nccc(N(C)c3ccc4c(C)n(C)nc4c3)n2)cc1S(N)(=O)=O [Pazopanib] (1000 nM),107%
17,Cc1ccc(Nc2nccc(N(C)c3ccc4c(C)n(C)nc4c3)n2)cc1S(N)(=O)=O [Pazopanib] (10000 nM),76.9%
18,C[C@]12C=CC(=O)C=C1CC[C@@H]1[C@@H]2[C@@H](O)C[C@@]2(C)[C@H]1CC[C@]2(O)C(=O)CO [Prednisolone] (10000 nM),102%
19,CNC(=O)c1cc(Oc2ccc(NC(=O)Nc3ccc(Cl)c(C(F)(F)F)c3)cc2)ccn1 [Sorafenib] (100 nM),87%
20,CNC(=O)c1cc(Oc2ccc(NC(=O)Nc3ccc(Cl)c(C(F)(F)F)c3)cc2)ccn1 [Sorafenib] (1000 nM),115%
21,CCN(CC)CCNC(=O)c1c(C)[nH]c(/C=C2\C(=O)Nc3ccc(F)cc32)c1C [Sunitinib] (100 nM),86.5%
22,CCN(CC)CCNC(=O)c1c(C)[nH]c(/C=C2\C(=O)Nc3ccc(F)cc32)c1C [Sunitinib] (1000 nM),106%
23,CC[C@@]1(O)C(=O)OCc2c1cc1n(c2=O)Cc2cc3c(CN(C)C)c(O)ccc3nc2-1 [Topotecan] (100 nM),65%

# Test system: CAL-85-1
# Test: as above
# Details: incubation time: 72 h
# Outline: as §1
row,SMILES,normalised response
1,COc1ccc(-c2cc3c(C)nc(N)nc3n([C@H]3CC[C@H](OCCO)CC3)c2=O)cn1 (1000 nM),79.9%
2,COc1ccc(-c2cc3c(C)nc(N)nc3n([C@H]3CC[C@H](OCCO)CC3)c2=O)cn1 (10000 nM),52.1%
3,O=C(Nc1c[nH]nc1-c1nc2ccc(CN3CCOCC3)cc2[nH]1)NC1CC1 [AT9283] (1000 nM),37.8%
4,COc1cc(CCc2cc(NC(=O)c3ccc(N4CC(C)NC(C)C4)cc3)n[nH]2)cc(OC)c1 (stereo unspecified) [AZD4547] (100 nM),108%
5,CO[C@@H](C(=O)N1Cc2[nH]nc(NC(=O)c3ccc(N4CCN(C)CC4)cc3)c2C1)c1ccccc1 [Danusertib] (1000 nM),97.5%
6,Cc1nc(Nc2ncc(C(=O)Nc3c(C)cccc3Cl)s2)cc(N2CCN(CCO)CC2)n1 [Dasatinib] (100 nM),74%
7,Cc1nc(Nc2ncc(C(=O)Nc3c(C)cccc3Cl)s2)cc(N2CCN(CCO)CC2)n1 [Dasatinib] (1000 nM),43.1%
8,Cc1c(CN2CCN(C(=O)[C@H](C)O)CC2)sc2c(N3CCOCC3)nc(-c3cnc(N)nc3)nc12 [GDC-0980] (1000 nM),97.7%
9,Cc1c(CN2CCN(C(=O)[C@H](C)O)CC2)sc2c(N3CCOCC3)nc(-c3cnc(N)nc3)nc12 [GDC-0980] (10000 nM),58%
10,C[C@]12O[C@H](C[C@]1(O)CO)n1c3ccccc3c3c4c(c5c6ccccc6n2c5c31)CNC4=O [Lestaurtinib] (100 nM),83.4%
11,C[C@]12O[C@H](C[C@]1(O)CO)n1c3ccccc3c3c4c(c5c6ccccc6n2c5c31)CNC4=O [Lestaurtinib] (1000 nM),21.5%
12,O=C1c2c(O)ccc(O)c2C(=O)c2c(NCCNCCO)ccc(NCCNCCO)c21 [Mitoxantrone] (100 nM),101%
13,O=C1c2c(O)ccc(O)c2C(=O)c2c(NCCNCCO)ccc(NCCNCCO)c21 [Mitoxantrone] (1000 nM),104%
14,Nc1ccccc1NC(=O)c1ccc(CNc2nccc(-c3cccnc3)n2)cc1 [Mocetinostat] (10000 nM),-38.3%
15,COc1nc(N)nc2c1ncn2[C@@H]1O[C@H](CO)[C@@H](O)[C@@H]1O [Nelarabine] (10000 nM),138%
16,Cc1ccc(Nc2nccc(N(C)c3ccc4c(C)n(C)nc4c3)n2)cc1S(N)(=O)=O [Pazopanib] (1000 nM),101%
17,Cc1ccc(Nc2nccc(N(C)c3ccc4c(C)n(C)nc4c3)n2)cc1S(N)(=O)=O [Pazopanib] (10000 nM),78.9%
18,C[C@]12C=CC(=O)C=C1CC[C@@H]1[C@@H]2[C@@H](O)C[C@@]2(C)[C@H]1CC[C@]2(O)C(=O)CO [Prednisolone] (10000 nM),84.1%
19,CNC(=O)c1cc(Oc2ccc(NC(=O)Nc3ccc(Cl)c(C(F)(F)F)c3)cc2)ccn1 [Sorafenib] (100 nM),107%
20,CNC(=O)c1cc(Oc2ccc(NC(=O)Nc3ccc(Cl)c(C(F)(F)F)c3)cc2)ccn1 [Sorafenib] (1000 nM),89.9%
21,CCN(CC)CCNC(=O)c1c(C)[nH]c(/C=C2\C(=O)Nc3ccc(F)cc32)c1C [Sunitinib] (100 nM),99.8%
22,CCN(CC)CCNC(=O)c1c(C)[nH]c(/C=C2\C(=O)Nc3ccc(F)cc32)c1C [Sunitinib] (1000 nM),66.5%
